Assays:
[1] = tested on: p-AMPK, p-Sirt1, p-p38, p-Nrf2 in C2C12 cells; assay: Western blot of proteins related with PGC-1α activation in C2C12 cells; assay type: cell-based, mice; conditions: C2C12, 0.36 μg/mL (Cr 5 μg/mL), control G1 = 1.00
Method: C2C12 cells were dispensed into a 6-well plate at 2×10^5 cells/well and stabilized for 24 hours. In order to investigate the effect of each test substance on muscle cell differentiation, each test substance was added to the myocyte differentiation medium. The cells were cultured for 4 days (mRNA analysis) or 7 days (protein analysis) after exchanging the cell culture medium with the myocyte differentiation medium treated with each test substance, as shown in Table 2.
C2C12 cells were dispensed into a 6-well plate at 2×10^5 cells/well and stabilized for 24 hours. The cells were cultured for 7 days after exchanging the culture medium with a myocyte differentiation medium containing the test substance. After the induction of differentiation for 7 days, the cells were homogenized by adding a lysis buffer (20 mmol/L HEPES, pH 7.5, 150 mmol/L NaCl, 1% Triton X-100, 1 mmol/L EDTA, 1 mmol/L EGTA, 100 mmol/L NaF, 10 mmol/L sodium pyrophosphate, 1 mmol/L Na3VO4, 20 μg/mL aprotinin, 10 μg/mL antipain, 10 μg/mL leupeptin, 80 μg/mL benzamidine HCl, 0.2 mmol/L PMSF) and a total cell lysate was obtained through centrifugation. The protein quantity of the total cell lysate was measured using a BCA protein assay kit (Thermo Scientific). The total cell lysate (50 μg) was separated by 10% sodium dodecyl sulfate polyacrylamide gel electrophoresis (SDS-PAGE) and then transferred to a polyvinylidene difluoride membrane (Milipore). The membrane was blocked for 1 hour in 5% skim milk-TBST (20 mmol/L Tris·HCl, pH 7.5, 150 mmol/L NaCl, 0.1% Tween 20) and then incubated for 16 hours at 4° C. or for 1 hour at room temperature after adding antibodies. Thereafter, horseradish peroxidase (HRP)-linked anti-rabbit IgG or HRP-linked anti-mouse IgG was added and the mixture was stirred for 1 hour. The detected protein bands were visualized by enhanced chemiluminescence using a Luminata™ Forte Western HRP substrate (Millipore). The level of protein expression was quantified using the ImageQuant™ LAS 500 imaging system (GE Healthcare Bio-Sciences AB).
The result of western blot analysis conducted using the total cell lysate obtained by treating with the test substance to investigate the effect of the test substance on the changes in proteins associated with PGC-1α activation is shown in Table 6.
Based on the western blot analysis result, the activity of each protein was evaluated from the ratio of activation.

[2] = tested on: C2C12 cells; assay: Intracellular ROS production in C2C12 cells (DCF-DA); assay type: cell-based, mice; conditions: oxidative stress by 50 μM TBHP, 1 h pretreatment with test substance
Method: C2C12 cells were dispensed into a 96-well plate at 1×10^4 cells/well and stabilized for 24 hours. Subsequently, the cells were cultured for 1 hour after exchanging with the culture medium with the myocyte differentiation medium containing each test substance. After 1 hour, the cells were washed with PBS and cultured further for 3 hours with a culture medium containing 50 μM tert-butyl hydrogen peroxide (TBHP), and the ROS level in the cells was measured using a DCF-DA assay kit (Abcam) according to the manufacturer's method.
In order to investigate the effect of each of the compositions according to Examples 1 to 4 on ROS production in C2C12 cells, ROS production was measured using 2′,7′-dichlorofluorescin diacetate (DCF-DA). DCF-DA was measured using the principle that it is oxidized by ROS in cells and is converted to DCF, which emits fluorescence.

Q: Which p-AMPK/AMPK ratio [1] does the source give for `O=C(O)c1ccc2c3c1cccc3c(=O)n1c3ccccc3nc21` [STO] here?
A: significantly inhibited

Q: What about the p-Nrf2/Nrf2 ratio [1] of the same compound?
A: significantly inhibited

Q: And the p-p38/p38 ratio [1]?
A: significantly inhibited

Q: What about the “ROS production (fluorescence intensity)” value [2] of the same compound?
A: 33.97±2.22 fluorescence intensity
